US6858638B2, “Substituted indazoles, compositions containing them, method of production and use” (Aventis Pharma S.A., priority 2002, dated 2005)

Experiments:
Format in all cases: biochemical
[1] = biological target: T1, human FAK (Homo sapiens, UniProt Q05397); test: FAK autophosphorylation inhibition, time resolved fluorescence (HTRF) assay; settings: 10 μM (values without asterisk); read-out: FAK % inhib at 10 μM
T1 construct: The complete cDNA of human FAK; made in house; host or cells: baculovirus expression system (vector pFastBac HTc)
Summary of the method: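 Autophosphorylation was detected by europium-cryptate anti-pTyr and XL665 anti-His energy transfer, percent inhibition from the 665/620 ratio relative to no-compound wells. Enzyme: His-FAK full length, 6.6 µg/ml, incubated 1 h at 37 °C, pH 7.2, 15 µM ATP.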

[2] = biological target: T2, human KDR enzyme (Homo sapiens, UniProt P35968); test: KDR substrate (PLCγ) phosphorylation, scintillation assay; settings: 10 μM; for inhibition at 10 µM: read-out: KDR % inhib at 10 μM
T2 construct: The cytoplasmic domain of the human KDR enzyme; GST; made in house; host or cells: SF21 insect cells (baculovirus)
Summary of the method: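 Values are percent inhibition relative to the compound-free control, read by scintillation counting of 33P incorporation after EDTA stop. Baculovirus/SF21-expressed GST-KDR cytoplasmic domain (100 ng) acted for 1 h at 37 °C in pH 7.2 MOPS kinase buffer. The substrate was GST-PLCγ SH2-SH3 (2 μg), added with γ33P-ATP and 2 μM unlabeled ATP.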

[3] = biological target: T3, human IGF1R cytoplasmic domain (Homo sapiens, UniProt P08069); test: IGF1R autophosphorylation inhibition, time resolved fluorescence (HTRF) assay; settings: 10 μM; read-out: IGF1R % inhib at 10 μM
T3 construct: The human IGF1R cytoplasmic domain was cloned; made in house; host or cells: SF21 insect cells (baculovirus)
Description: The inhibitory activity of the compounds on IGF1R is determined by measuring the inhibition of the autophosphorylation of the enzyme using a time resolved fluorescence (HTRF) assay.
The human IGF1R cytoplasmic domain was cloned, as a fusion with glutathione S-transferase (GST), into the baculovirus expression vector pFastBac-GST. The protein was expressed in SF21 cells and purified to approximately 80% homogeneity.
The kinase activity was determined by incubating the enzyme with various concentrations of test compound in a 50 mM Hepes buffer, pH 7.5, containing 5 mM MnCl2, 50 mM NaCl, 3% glycerol, 0.025% Tween […] of ATP. The enzyme reaction is stopped by adding 100 mM Hepes buffer, pH 7.0, containing 0.4 M KF, 133 mM EDTA and 0.1% BSA containing an anti-GST antibody labeled with XL665 and an antiphosphotyrosine antibody conjugated to europium cryptate (Eu-K). The characteristics of the two fluorophores, XL-665 and Eu-K, are available in G. Mathis et al., Anticancer Research, 1997, 17, pages 3011-3014. The transfer of energy from the excited europium cryptate to the acceptor XL665 is proportional to the degree of autophosphorylation of IGF1R. The long-lived signal specific for XL-665 is measured in a Victor analyzer plate counter (Perkin-elmer). The inhibition of the IGF1R autophosphorylation activity with compounds of the invention is expressed as percentage inhibition compared to a control whose activity is measured in the absence of test compound.

[4] = biological target: T4, Aurora2 kinase (Homo sapiens, UniProt O14965); test: Aurora2 kinase radioactivity scintillation assay using nickel chelate (NuMA substrate); settings: 10 μM; read-out: Aurora2 % inhib at 10 μM
T4 construct: A complete recombinant Aurora2 enzyme; His tag (N); made in house; host or cells: E. coli
T4 sequence (O14965 1-403): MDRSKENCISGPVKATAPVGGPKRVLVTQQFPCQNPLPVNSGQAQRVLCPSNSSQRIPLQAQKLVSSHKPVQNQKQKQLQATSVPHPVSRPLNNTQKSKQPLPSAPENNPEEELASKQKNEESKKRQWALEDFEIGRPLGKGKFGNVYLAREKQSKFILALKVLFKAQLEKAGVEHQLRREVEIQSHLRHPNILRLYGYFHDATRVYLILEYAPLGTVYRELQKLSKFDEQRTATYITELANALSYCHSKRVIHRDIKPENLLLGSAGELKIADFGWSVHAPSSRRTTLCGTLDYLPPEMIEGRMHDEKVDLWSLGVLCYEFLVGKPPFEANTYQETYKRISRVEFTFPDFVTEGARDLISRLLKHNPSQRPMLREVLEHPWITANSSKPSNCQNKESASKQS
Summary of the method: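 Read-out is 33P incorporation into His-NuMA (Q1687-H2101, 0.5 μM) captured on nickel chelate, after 30 min at 37 °C with 0.02 μM His-Aurora2 and 1 μM ATP. Expressed as percentage inhibition of uncompounded control activity, background subtracted.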

T3 sequence (P08069 960-1367 limits assumed): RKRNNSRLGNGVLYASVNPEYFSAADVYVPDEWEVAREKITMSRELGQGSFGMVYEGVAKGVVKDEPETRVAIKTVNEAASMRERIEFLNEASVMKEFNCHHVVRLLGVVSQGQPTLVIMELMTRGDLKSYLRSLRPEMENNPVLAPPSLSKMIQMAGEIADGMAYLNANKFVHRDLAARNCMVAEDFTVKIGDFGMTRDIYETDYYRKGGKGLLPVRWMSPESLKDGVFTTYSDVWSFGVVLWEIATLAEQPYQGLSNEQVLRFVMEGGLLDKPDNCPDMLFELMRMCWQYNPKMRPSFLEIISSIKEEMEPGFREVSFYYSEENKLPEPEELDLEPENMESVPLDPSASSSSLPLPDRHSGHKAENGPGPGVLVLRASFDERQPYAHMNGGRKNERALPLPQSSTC
T2 sequence (P35968 786-1356 limits assumed): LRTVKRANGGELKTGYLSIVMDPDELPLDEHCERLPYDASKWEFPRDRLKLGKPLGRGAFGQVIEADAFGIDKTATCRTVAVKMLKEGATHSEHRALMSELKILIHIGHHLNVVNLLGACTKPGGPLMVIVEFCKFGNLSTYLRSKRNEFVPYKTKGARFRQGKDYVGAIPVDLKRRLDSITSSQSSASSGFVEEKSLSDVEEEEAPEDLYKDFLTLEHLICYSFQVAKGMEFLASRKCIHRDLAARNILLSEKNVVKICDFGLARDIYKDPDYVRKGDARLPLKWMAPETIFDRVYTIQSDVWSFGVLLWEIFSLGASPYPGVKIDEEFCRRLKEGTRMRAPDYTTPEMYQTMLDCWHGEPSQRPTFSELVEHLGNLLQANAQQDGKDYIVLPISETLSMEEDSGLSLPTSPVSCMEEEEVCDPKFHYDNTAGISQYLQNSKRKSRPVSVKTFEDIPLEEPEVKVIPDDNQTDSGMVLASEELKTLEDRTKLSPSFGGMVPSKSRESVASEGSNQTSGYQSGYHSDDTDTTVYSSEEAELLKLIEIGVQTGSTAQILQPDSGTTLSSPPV
T1 sequence (Q05397 whole entry): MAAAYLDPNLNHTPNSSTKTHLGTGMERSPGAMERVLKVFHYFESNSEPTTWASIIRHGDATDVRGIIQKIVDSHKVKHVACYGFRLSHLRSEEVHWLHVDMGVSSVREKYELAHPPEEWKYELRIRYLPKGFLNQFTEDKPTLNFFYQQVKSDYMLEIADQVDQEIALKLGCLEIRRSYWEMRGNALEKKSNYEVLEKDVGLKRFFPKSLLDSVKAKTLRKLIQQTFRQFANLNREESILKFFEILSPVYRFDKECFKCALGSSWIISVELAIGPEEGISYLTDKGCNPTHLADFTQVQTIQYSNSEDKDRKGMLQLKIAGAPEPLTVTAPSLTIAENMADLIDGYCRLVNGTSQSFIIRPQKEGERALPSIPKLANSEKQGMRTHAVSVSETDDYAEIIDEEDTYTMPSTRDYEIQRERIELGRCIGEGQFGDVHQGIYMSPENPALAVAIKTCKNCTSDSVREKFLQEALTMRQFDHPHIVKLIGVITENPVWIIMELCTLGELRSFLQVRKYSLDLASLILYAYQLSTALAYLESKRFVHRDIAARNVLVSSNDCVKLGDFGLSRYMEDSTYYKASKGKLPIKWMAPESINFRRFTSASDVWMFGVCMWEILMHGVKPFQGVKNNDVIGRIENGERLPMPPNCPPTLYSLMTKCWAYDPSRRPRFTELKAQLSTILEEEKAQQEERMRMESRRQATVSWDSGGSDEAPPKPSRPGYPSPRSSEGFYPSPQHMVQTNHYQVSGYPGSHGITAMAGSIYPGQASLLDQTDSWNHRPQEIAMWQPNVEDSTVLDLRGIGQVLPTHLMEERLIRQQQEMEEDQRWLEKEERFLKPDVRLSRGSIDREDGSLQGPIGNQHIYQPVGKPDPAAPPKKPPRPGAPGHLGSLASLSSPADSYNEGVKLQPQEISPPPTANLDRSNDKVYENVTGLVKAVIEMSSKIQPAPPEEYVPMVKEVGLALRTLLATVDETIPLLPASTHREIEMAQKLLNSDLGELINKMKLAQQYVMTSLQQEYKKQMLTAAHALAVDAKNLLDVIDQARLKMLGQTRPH

N#Cc1ccccc1S(=O)(=O)Nc1ccc2[nH]nc(-c3ccccc3)c2c1 [Example 144, 2-Cyano-N-(3-phenyl-1H-indazol-5-yl)-benzenesulfonamide]
inhibition at 10 µM [1]: 70% | inhibition at 10 µM [2]: 72% | inhibition at 10 µM [3]: 69% | inhibition at 10 µM [4]: 100%

CC1(C)[C@H]2CCC1(CS(=O)(=O)Nc1ccc3[nH]nc(-c4ccccc4)c3c1)C(=O)C2 [Example 148, C-(7,7-Dimethyl-2-oxo-bicyclo[2.2.1]hept-1-yl)-N-(3-phenyl-1H-indazol-5-yl)-methanesulfonamide]
inhibition at 10 µM [1]: 36% | inhibition at 10 µM [2]: 61% | inhibition at 10 µM [3]: 30% | inhibition at 10 µM [4]: 77%

O=S(=O)(Nc1ccc2[nH]nc(-c3ccccc3)c2c1)c1cccc2nonc12 [Example 149, N-(3-Phenyl-1H-indazol-5-yl)-benzo[1,2,5]oxadiazole-4-sulfonamide]
inhibition at 10 µM [1]: 78% | inhibition at 10 µM [2]: 57% | inhibition at 10 µM [3]: 67% | inhibition at 10 µM [4]: 100%

CS(=O)(=O)c1ccc(S(=O)(=O)Nc2ccc3[nH]nc(-c4ccccc4)c3c2)cc1 [Example 155, 4-Methanesulfonyl-N-(3-phenyl-1H-indazol-5-yl)-benzenesulfonamide]
inhibition at 10 µM [1]: 5% | inhibition at 10 µM [2]: 61% | inhibition at 10 µM [3]: 50% | inhibition at 10 µM [4]: 61%

Nc1cc(Cl)cc(Cl)c1S(=O)(=O)Nc1ccc2[nH]nc(-c3ccccc3)c2c1 [Example 159, 2-Amino-4,6-dichloro-N-(3-phenyl-1H-indazol-5-yl)-benzenesulfonamide]
inhibition at 10 µM [1]: 53% | inhibition at 10 µM [2]: 86% | inhibition at 10 µM [3]: 58% | inhibition at 10 µM [4]: 77%

CS(=O)(=O)c1ccccc1S(=O)(=O)Nc1ccc2[nH]nc(-c3ccc(Br)cc3)c2c1 [Example 161, N-[3-(4-Bromophenyl)-1H-indazol-5-yl]-2-methanesulfonyl-benzenesulfonamide]
inhibition at 10 µM [1]: 61% | inhibition at 10 µM [2]: 65% | inhibition at 10 µM [3]: 75% | inhibition at 10 µM [4]: 89%

CS(=O)(=O)c1ccccc1S(=O)(=O)Nc1ccc2[nH]nc(-c3cccc([N+](=O)[O-])c3)c2c1 [Example 162, 2-Methanesulfonyl-N-[3-(3-nitrophenyl)-1H-indazol-5-yl]-benzenesulfonamide]
inhibition at 10 µM [1]: 97% | inhibition at 10 µM [2]: 57% | inhibition at 10 µM [3]: 82% | inhibition at 10 µM [4]: 91%

CS(=O)(=O)c1ccccc1S(=O)(=O)Nc1ccc2[nH]nc(-c3ccc(Cl)cc3Cl)c2c1 [Example 163, N-[3-(2,4-Dichlorophenyl)-1H-indazol-5-yl]-2-methanesulfonyl-benzenesulfonamide]
inhibition at 10 µM [1]: 61% | inhibition at 10 µM [2]: 61% | inhibition at 10 µM [3]: 23% | inhibition at 10 µM [4]: 64%

Cc1ccc(-c2n[nH]c3ccc(NS(=O)(=O)c4ccccc4S(C)(=O)=O)cc23)cc1 [Example 164, 2-Methanesulfonyl-N-(3-p-tolyl-1H-indazol-5-yl)-benzenesulfonamide]
inhibition at 10 µM [1]: 90% | inhibition at 10 µM [2]: 71% | inhibition at 10 µM [3]: 66% | inhibition at 10 µM [4]: 91%

Cc1cccc(-c2n[nH]c3ccc(NS(=O)(=O)c4ccccc4S(C)(=O)=O)cc23)c1 [Example 165, 2-Methanesulfonyl-N-(3-m-tolyl-1H-indazol-5-yl)-benzenesulfonamide]
inhibition at 10 µM [1]: 96% | inhibition at 10 µM [2]: 58% | inhibition at 10 µM [3]: 71% | inhibition at 10 µM [4]: 92%

CN(C)c1cccc2c(S(=O)(=O)Nc3cccc(-c4n[nH]c5ccc(NS(=O)(=O)c6ccccc6S(C)(=O)=O)cc45)c3)cccc12 [Example 166, N-{3-[5-(2-Methanesulfonyl-benzenesulfonylamino)-1H-indazol-3-yl]phenyl}-5-dimethylaminonaphthalene-1-sulfonamide]
inhibition at 10 µM [1]: 53% | inhibition at 10 µM [2]: 33% | inhibition at 10 µM [3]: 20% | inhibition at 10 µM [4]: 61%

CS(=O)(=O)c1ccccc1S(=O)(=O)Nc1ccc2[nH]nc(-c3ccc(F)c(Cl)c3)c2c1 [Example 167, N-[3-(3-Chloro-4-fluoro-phenyl)-1H-indazol-5-yl]-2-methanesulfonyl-benzenesulfonamide]
inhibition at 10 µM [1]: 91% | inhibition at 10 µM [2]: 44% | inhibition at 10 µM [3]: 77% | inhibition at 10 µM [4]: 90%

CS(=O)(=O)c1ccccc1S(=O)(=O)Nc1ccc2[nH]nc(-c3cc(Cl)cc(Cl)c3)c2c1 [Example 168, N-[3-(3,5-Dichlorophenyl)-1H-indazol-5-yl]-2-methanesulfonyl-benzenesulfonamide]
inhibition at 10 µM [1]: 95% | inhibition at 10 µM [2]: 49% | inhibition at 10 µM [3]: 50% | inhibition at 10 µM [4]: 87%

CS(=O)(=O)c1ccccc1S(=O)(=O)Nc1ccc2[nH]nc(-c3cccc4c3oc3ccccc34)c2c1 [Example 169, N-(3-(Dibenzofuran-4-yl)-1H-indazol-5-yl)-2-methanesulfonyl-benzenesulfonamide]
inhibition at 10 µM [1]: 22% | inhibition at 10 µM [2]: 66% | inhibition at 10 µM [3]: 13% | inhibition at 10 µM [4]: 52%

CS(=O)(=O)c1ccccc1S(=O)(=O)Nc1ccc2[nH]nc(-c3ccc(-c4ccccc4)cc3)c2c1 [Example 170, N-(3-Biphenyl-4-yl-1H-indazol-5-yl)-2-methanesulfonyl-benzenesulfonamide]
inhibition at 10 µM [1]: 62% | inhibition at 10 µM [2]: 60% | inhibition at 10 µM [3]: 41% | inhibition at 10 µM [4]: 69%

CS(=O)(=O)c1ccccc1S(=O)(=O)Nc1ccc2[nH]nc(-c3ccc(Oc4ccccc4)cc3)c2c1 [Example 171, 2-Methanesulfonyl-N-[3-(4-phenoxyphenyl)-1H-indazol-5-yl]benzenesulfonamide]
inhibition at 10 µM [1]: 25% | inhibition at 10 µM [2]: 40% | inhibition at 10 µM [3]: 20% | inhibition at 10 µM [4]: 59%

CSc1ccc(-c2n[nH]c3ccc(NS(=O)(=O)c4ccccc4S(C)(=O)=O)cc23)cc1 [Example 172, 2-Methanesulfonyl-N-[3-(4-methylsulfanylphenyl)-1H-indazol-5-yl]-benzenesulfonamide]
inhibition at 10 µM [1]: 92% | inhibition at 10 µM [2]: 71% | inhibition at 10 µM [3]: 84% | inhibition at 10 µM [4]: 94%

CS(=O)(=O)c1ccccc1S(=O)(=O)Nc1ccc2[nH]nc(-c3ccccc3-c3ccccc3)c2c1 [Example 173, N-(3-Biphenyl-2-yl-1H-indazol-5-yl)-2-methanesulfonyl-benzenesulfonamide]
inhibition at 10 µM [1]: 62% | inhibition at 10 µM [2]: 32% | inhibition at 10 µM [3]: 27% | inhibition at 10 µM [4]: 77%

CS(=O)(=O)c1ccccc1S(=O)(=O)Nc1ccc2[nH]nc(-c3cccs3)c2c1 [Example 174, 2-Methanesulfonyl-N-(3-thiophen-2-yl-1H-indazol-5-yl)-benzenesulfonamide]
inhibition at 10 µM [1]: 100% | KDR % inhib at 10 μM [2]: 53% | inhibition at 10 µM [3]: 65% | inhibition at 10 µM [4]: 93%

CS(=O)(=O)c1ccccc1S(=O)(=O)Nc1ccc2[nH]nc(-c3cccc(C(F)(F)F)c3)c2c1 [Example 175, N-[3-(3-Trifluoromethylphenyl)-1H-indazol-5-yl]-2-methanesulfonyl-benzenesulfonamide]
inhibition at 10 µM [1]: 90% | inhibition at 10 µM [2]: 68% | inhibition at 10 µM [3]: 81% | inhibition at 10 µM [4]: 88%
